{"source": "patent US11891634B2", "about": "“PDE5A destabilizing domains” (The Board of Trustees of the Leland Stanford Junior …, priority 2017, dated 2024)", "assay_type_in_all_cases": "cell-based, human", "key": {"[1]": {"system": "HCT 116 cells transduced with the PDE5A DD derived GFP constructs", "assay": "Response to Tadalafil, GFP expression by FACS in HCT116", "details": "for MFI / Stabilization ratio with Tadalafil: 48 hours, HCT116", "procedure,_shortened": "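HCT116 cells stably transduced (mCherry-sorted) with lentiviral PDE5A DD–AcGFP constructs, exposed to DMSO or Tadalafil 0.01–100 μM for 48 hrs. GFP mean fluorescence by FACS; stabilization ratio = ligand vs no-ligand signal, basal expression = no-ligand signal vs parental autofluorescence.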"}, "[2]": {"system": "HCT116 cells transduced with the constructs", "assay": "Response to Sildenafil, GFP expression by flow cytometry in HCT116", "details": "for MFI / Stabilization ratio with Sildenafil: 48 hours, HCT116", "procedure,_shortened": "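HCT116 cells stably expressing AcGFP-fused destabilizing domains from a lentiviral mCherry-marked vector (sorted on mCherry) were exposed to sildenafil at 0.01–100 μM for 48 hours. GFP mean fluorescence intensity was measured by flow cytometry.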"}, "[3]": {"system": "HCT 116 cells transduced with the PDE5A DD derived GFP constructs", "assay": "Response to Vardenafil, GFP expression by FACS in HCT116", "details": "for MFI / Stabilization ratio with Vardenafil: 48 hours, HCT116", "procedure,_shortened": "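HCT116 cells stably carrying lentiviral AcGFP fusions of PDE5A (535-860) mutants, sorted on mCherry, got DMSO or Vardenafil (10 μM, or 0.002–30 μM) for 48 h, and GFP MFI was read by flow cytometry. Basal expression is untreated GFP over parental autofluorescence; the stabilization ratio is treated over untreated MFI.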"}}}
{"substance": "PDE5AN (#53): N-terminal DD 535-860 of PDE5A (E536G, Q589R, C839S), SEQ ID NO. 67, fused to AcGFP", "values": [{"measurement": "MFI", "setting": "[1]; DMSO (no Tadalafil)", "value": 12071}, {"measurement": "Basal expression", "setting": "[1]; Table 21, MFI with DMSO / parental HCT116, Tadalafil experiment", "value": 9.43}, {"measurement": "Stabilization ratio with Tadalafil", "setting": "[1]; Tadalafil 0.01 μM vs DMSO", "value": 1.0}, {"measurement": "MFI", "setting": "[1]; Tadalafil 0.01 μM", "value": 11635}, {"measurement": "Stabilization ratio with Tadalafil", "setting": "[1]; Tadalafil 0.02 μM vs DMSO", "value": 1.0}, {"measurement": "MFI", "setting": "[1]; Tadalafil 0.02 μM", "value": 11690}, {"measurement": "Stabilization ratio with Tadalafil", "setting": "[1]; Tadalafil 0.05 μM vs DMSO", "value": 1.0}, {"measurement": "MFI", "setting": "[1]; Tadalafil 0.05 μM", "value": 12100}, {"measurement": "Stabilization ratio with Tadalafil", "setting": "[1]; Tadalafil 0.14 μM vs DMSO", "value": 1.0}, {"measurement": "MFI", "setting": "[1]; Tadalafil 0.14 μM", "value": 12331}, {"measurement": "Stabilization ratio with Tadalafil", "setting": "[1]; Tadalafil 0.41 μM vs DMSO", "value": 1.1}, {"measurement": "MFI", "setting": "[1]; Tadalafil 0.41 μM", "value": 13422}, {"measurement": "Stabilization ratio with Tadalafil", "setting": "[1]; Tadalafil 1.23 μM vs DMSO", "value": 1.3}, {"measurement": "MFI", "setting": "[1]; Tadalafil 1.23 μM", "value": 16255}, {"measurement": "Stabilization ratio with Tadalafil", "setting": "[1]; Tadalafil 3.7 μM vs DMSO", "value": 2.0}, {"measurement": "MFI", "setting": "[1]; Tadalafil 3.7 μM", "value": 24201}, {"measurement": "Stabilization ratio with Tadalafil", "setting": "[1]; Tadalafil 11.11 μM vs DMSO", "value": 3.5}, {"measurement": "MFI", "setting": "[1]; Tadalafil 11.11 μM", "value": 42644}, {"measurement": "Stabilization ratio with Tadalafil", "setting": "[1]; Tadalafil 33.33 μM vs DMSO", "value": 6.6}, {"measurement": "MFI", "setting": "[1]; Tadalafil 33.33 μM", "value": 80088}, {"measurement": "Stabilization ratio with Tadalafil", "setting": "[1]; Tadalafil 100 μM vs DMSO", "value": 8.6}, {"measurement": "MFI", "setting": "[1]; Tadalafil 100 μM", "value": 104032}, {"measurement": "MFI", "setting": "[2]; DMSO (no Sildenafil)", "value": 13747}, {"measurement": "Stabilization ratio with Sildenafil", "setting": "[2]; Sildenafil 0.01 μM vs DMSO", "value": 0.9}, {"measurement": "MFI", "setting": "[2]; Sildenafil 0.01 μM", "value": 12801}, {"measurement": "Stabilization ratio with Sildenafil", "setting": "[2]; Sildenafil 0.02 μM vs DMSO", "value": 1.0}, {"measurement": "MFI", "setting": "[2]; Sildenafil 0.02 μM", "value": 14045}, {"measurement": "Stabilization ratio with Sildenafil", "setting": "[2]; Sildenafil 0.05 μM vs DMSO", "value": 1.0}, {"measurement": "MFI", "setting": "[2]; Sildenafil 0.05 μM", "value": 13801}, {"measurement": "Stabilization ratio with Sildenafil", "setting": "[2]; Sildenafil 0.14 μM vs DMSO", "value": 1.0}, {"measurement": "MFI", "setting": "[2]; Sildenafil 0.14 μM", "value": 14048}, {"measurement": "Stabilization ratio with Sildenafil", "setting": "[2]; Sildenafil 0.41 μM vs DMSO", "value": 1.2}, {"measurement": "MFI", "setting": "[2]; Sildenafil 0.41 μM", "value": 16175}, {"measurement": "Stabilization ratio with Sildenafil", "setting": "[2]; Sildenafil 1.23 μM vs DMSO", "value": 1.5}, {"measurement": "MFI", "setting": "[2]; Sildenafil 1.23 μM", "value": 20410}, {"measurement": "Stabilization ratio with Sildenafil", "setting": "[2]; Sildenafil 3.70 μM vs DMSO", "value": 2.2}, {"measurement": "MFI", "setting": "[2]; Sildenafil 3.70 μM", "value": 30372}, {"measurement": "Stabilization ratio with Sildenafil", "setting": "[2]; Sildenafil 11.11 μM vs DMSO", "value": 4.3}, {"measurement": "MFI", "setting": "[2]; Sildenafil 11.11 μM", "value": 59723}, {"measurement": "Stabilization ratio with Sildenafil", "setting": "[2]; Sildenafil 33.33 μM vs DMSO", "value": 7.2}, {"measurement": "MFI", "setting": "[2]; Sildenafil 33.33 μM", "value": 99558}, {"measurement": "Stabilization ratio with Sildenafil", "setting": "[2]; Sildenafil 100.00 μM vs DMSO", "value": 8.6}, {"measurement": "MFI", "setting": "[2]; Sildenafil 100.00 μM", "value": 117792}, {"measurement": "Basal expression", "setting": "[2]; Table 26, MFI with DMSO / parental HCT116, Sildenafil experiment", "value": 10.7}, {"measurement": "MFI", "setting": "[3]; DMSO (no Vardenafil)", "value": 14196}, {"measurement": "Basal (DMSO/Parental)", "setting": "[3]; Table 10, GFP signal without ligand / auto fluorescence of parental HCT-116", "value": 14.0}, {"measurement": "Basal", "setting": "[3]; Table 15, MFI with DMSO / parental HCT116, Vardenafil experiment", "value": 7.27}, {"measurement": "Stabilization ratio with Vardenafil", "setting": "[3]; Vardenafil 0.002 μM vs DMSO", "value": 1.0}, {"measurement": "MFI", "setting": "[3]; Vardenafil 0.002 μM", "value": 14117}, {"measurement": "Stabilization ratio with Vardenafil", "setting": "[3]; Vardenafil 0.005 μM vs DMSO", "value": 1.0}, {"measurement": "MFI", "setting": "[3]; Vardenafil 0.005 μM", "value": 14485}, {"measurement": "Stabilization ratio with Vardenafil", "setting": "[3]; Vardenafil 0.014 μM vs DMSO", "value": 1.1}, {"measurement": "MFI", "setting": "[3]; Vardenafil 0.014 μM", "value": 15735}, {"measurement": "Stabilization ratio with Vardenafil", "setting": "[3]; Vardenafil 0.041 μM vs DMSO", "value": 1.2}, {"measurement": "MFI", "setting": "[3]; Vardenafil 0.041 μM", "value": 17260}, {"measurement": "Stabilization ratio with Vardenafil", "setting": "[3]; Vardenafil 0.123 μM vs DMSO", "value": 1.8}, {"measurement": "MFI", "setting": "[3]; Vardenafil 0.123 μM", "value": 25577}, {"measurement": "Stabilization ratio with Vardenafil", "setting": "[3]; Vardenafil 0.370 μM vs DMSO", "value": 3.1}, {"measurement": "MFI", "setting": "[3]; Vardenafil 0.370 μM", "value": 43744}, {"measurement": "Stabilization ratio with Vardenafil", "setting": "[3]; Vardenafil 1.111 μM vs DMSO", "value": 5.7}, {"measurement": "MFI", "setting": "[3]; Vardenafil 1.111 μM", "value": 81455}, {"measurement": "Stabilization ratio with Vardenafil", "setting": "[3]; Vardenafil 3.333 μM vs DMSO", "value": 9.2}, {"measurement": "MFI", "setting": "[3]; Vardenafil 3.333 μM", "value": 131016}, {"measurement": "Stabilization ratio with Vardenafil", "setting": "[3]; Vardenafil 10 μM vs DMSO", "value": 12.2}, {"measurement": "MFI", "setting": "[3]; Vardenafil 10 μM", "value": 173576}, {"measurement": "Stabilization ratio with Vardenafil", "setting": "[3]; Vardenafil 30 μM vs DMSO", "value": 13.3}, {"measurement": "MFI", "setting": "[3]; Vardenafil 30 μM", "value": 188519}]}
